Measured values published in US20160228434A1, “TREATMENT OF DISEASES CAUSED BY ABNORMAL LYMPHOCYTE FUNCTION WITH AN HDAC6 INHIBITOR” (priority 2013, published 2016).
Entries after “also recorded” stand apart in the source; their conditions may differ.

Key:
[1] = test system: glomerular IL-6, IL-10 and TGF-β mRNA; test: Glomerular IL-6, IL-10 and TGF-β mRNA by real-time RT-PCR in treated NZB/W mice; assay type: in vivo; conditions: 38-week-old NZB/W mice
Experimental: (§1) NZB/W mice were injected intraperitoneally 5 days/week with the vehicle control (DMSO), ACY-738 treatment at 5 mg/kg (low-dose), or ACY-738 treatment at 20 mg/kg (high-dose) beginning at 22-weeks-of-age until euthanization at 38 weeks-of-age. ACY-738 was received from Acetylon Pharmaceuticals for use in all studies. Proteinuria and weight were measured every 2 weeks and blood was collected every four weeks for sera analysis. Proteinuria was measured by a standard semi-quantitative test using Siemens Uristix dipsticks (Siemens Healthcare, Deerfield, Ill., USA). Results were quantified according to the manufacturer's instructions and scored as follows: dipstick reading of 0 mg/dL=0, trace=1, 30-100 mg/dL=2, 100-300 mg/dL=3, 300-2000 mg/dL=4, and 2000+ mg/dL=5.
RNA was isolated using the mirVana miRNA isolation kit according to the manufacturer's protocol (Applied Biosystems, Carlsbad, Calif., USA). The eluates were quantified on a spectrophotometer (Nanodrop, Thermo Scientific, Waltham, Mass., USA). An aliquot was taken and diluted to 1 ng/μL for real-time RT-PCR. The eluted RNA was stored at −80° C.
IL-6, IL-10 and TGF-β mRNA expression were measured using TaqMan Gene Expression assays (Applied Biosystems, Carlsbad, Calif., USA). The […] using the endogenous control GAPDH, and then the ΔCT was determined by calculating the fold change in expression between the NZB/W mice treated with ACY-738 and the DMSO-treated controls. All samples were run in triplicate.
The cortical tissue was isolated from one kidney of each mouse and pooled by treatment group. Briefly, cortical tissue was pressed through grading sieves and resuspended in 750 U/mL Worthington type I collagenase at 37° C. for 20 min. Glomerular cells were pelleted, resuspended in RNAlater (QIAGEN, Valencia, Calif., USA), and stored at −20° C. until RNA isolation.
Following euthanization, glomeruli were isolated from the kidneys and RNA was extracted. Relative glomerular mRNA expression of IL-10, TGF-β, and IL-6 were determined using real-time RT-PCR.

[2] = test system: sera anti-dsDNA, IgG, IgG2a, IgG2b, IgM; test: Sera anti-dsDNA and Ig isotype levels by ELISA in treated NZB/W mice; assay type: in vivo
Experimental: as §1
Sera were collected prior to initiation of treatment at 22 weeks-of-age and every 4 weeks until euthanization. The mice were anesthetized using isoflurane (Piramal Healthcare, Mumbai, Maharashtra, India) and bled from the retro-orbital sinus. Blood was allowed to clot for 2 hours and then centrifuged for 15 min at 10,000×g. The levels of sera antibodies to dsDNA were measured by ELISA. Sera samples were added to the plate at a 1:100 dilution, followed by a two-fold serial dilution. The plate was read at 380 nm on a Spectramax 340PC microplate spectrophotometer (Molecular Devices, Sunnyvale, Calif., USA). A final dilution of 1:800 was reported.

[3] = 5 mg/kg, vs DMSO-treated controls
[4] = NZB/W mice, 5 and 20 mg/kg, dose-dependent

For `O=C(NO)c1cnc(NC2(c3ccccc3)CC2)nc1` [ACY-738], the “reduction of glomerular IL-6 mRNA level” value [1, 3] was “more than 50%”, the “reduction of glomerular IL-10 mRNA level” value [1, 3] was “more than 50%” and the “glomerular IL-6 mRNA level” value ([1]; 20 mg/kg) was “non-detectable levels”. For the same compound, the “glomerular IL-10 mRNA level” value ([1]; 20 mg/kg) was “non-detectable levels”, the “glomerular TGF-β mRNA” value ([1]; 5 and 20 mg/kg, dose-dependent) was “decreased” and the “sera IgG2b level” value ([2]; NZB/W mice at 38 weeks-of-age) was “significantly increased”. For the same compound, the “sera total IgM level” value ([2]; NZB/W mice at 38 weeks-of-age) was “slightly increased; also recorded: no effect”, the “sera anti-dsDNA” value ([2]; NZB/W mice, 5 mg/kg, vs vehicle control, p<0.05) was “significant decrease” and the “sera anti-dsDNA” value ([2]; NZB/W mice, 20 mg/kg (high dose), 38 weeks-of-age, 16 weeks of treatment, 20 mg/kg) was “prevent an increase in anti-dsDNA; also recorded: more pronounced”. The “sera IgG2a level” value [2, 4] was “significantly decreased” and the “sera total IgG level” value [2, 4] was “significantly decreased”.
